Where two headings read alike, the source gives them in different places.
What was measured:
[1] = logP determination by HPLC on reversed-phase columns (C 18), EEC Directive 79/831 Annex V.A8; format: physicochemical
[2] = tested on: caterpillars of the army worm (Spodoptera frugiperda); assay: Spodoptera frugiperda test (SPODFR spray treatment); format: in vivo; settings: foliar, 168 h, read-out: activity (caterpillars killed)
[3] = tested on: green peach aphid (Myzus persicae); assay: Myzus test (MYZUPE spray treatment); format: in vivo; settings: foliar, 144 h, read-out: activity (aphids killed)
Procedure: After 6 days the activity is determined, in %.

[4] = tested on: larvae of the mustard beetle (Phaedon cochleariae); assay: Phaedon test (PHAECO spray treatment); settings: in Brassica rapa, foliar, 168 h, read-out: activity (beetle larvae killed)
[5] = HPLC, reversed-phase C 18, table value without method mark, read-out: logP
[6] = application rate 100 g/ha, after 7 days, maize leaf discs, spray
[7] = application rate 100 g/ha, after 6 days, Chinese cabbage leaf discs, spray

## COC(=O)N(C)NC(=O)c1cc(C(F)(F)F)cc(C)c1NC(=O)c1cc(Cn2nnc(C(F)(F)C(F)(F)F)n2)nn1-c1ncccc1Cl [Example 61]
[1]; [5]
  chromatographic logP: 3.55
[2]; [6]
  pest or weed control at 100 g/ha: 100%
[3]; [7]
  pest or weed control at 100 g/ha: 90%
[4]
  pest or weed control at 100 g/ha: 100%

## COC(=O)N(C)NC(=O)c1cc(Cl)cc(Cl)c1NC(=O)c1cc(Cn2nnc(C(F)(F)F)n2)nn1-c1ncccc1Cl [Example 43]
[1]
  chromatographic logP: 2.92

## COC(=O)N(C)N(C)C(=O)c1cc(Cl)cc(C)c1NC(=O)c1cc(Cn2nnc(C(F)(F)F)n2)nn1-c1ncccc1Cl [Example 7]
[1]
  chromatographic logP: 3.39
[2]; in Zea mays
  pest or weed control at 100 g/ha: 100%
[3]; in Brassica rapa
  pest or weed control at 100 g/ha: 100%
[4]
  pest or weed control at 100 g/ha: 100%

## COC(=O)N(C)NC(=O)c1cc(Cl)cc(Cl)c1NC(=O)c1cc(Cn2nnnc2C(F)F)nn1-c1ncccc1Cl [Example 28]
[1]
  chromatographic logP: 2.27
[2]; in Zea mays
  pest or weed control at 100 g/ha: 100%
[3]; in Brassica rapa
  pest or weed control at 100 g/ha: 100%
[4]
  pest or weed control at 100 g/ha: 100%

## COC(=O)N(C)NC(=O)c1cc(Cl)cc(Cl)c1NC(=O)c1cc(Cn2nc(C(F)(F)F)c(Br)c2C)nn1-c1ncccc1Cl [Example 12]
[1]
  chromatographic logP: 3.57
[2]; in Zea mays
  pest or weed control at 100 g/ha: 100%
[3]; in Brassica rapa
  pest or weed control at 100 g/ha: 100%
[4]
  pest or weed control at 100 g/ha: 100%

## COC(=O)N(C)NC(=O)c1cc(Br)cc(C)c1NC(=O)c1cc(Cn2nnc(C(F)F)n2)nn1-c1ncccc1Cl [Example 27]
[1]
  chromatographic logP: 2.58
[2]; in Zea mays
  pest or weed control at 100 g/ha: 100%
[3]; in Brassica rapa
  pest or weed control at 100 g/ha: 100%
[4]
  pest or weed control at 100 g/ha: 100%

## COC(=O)N(C)NC(=O)c1cc(Cl)cc(Cl)c1NC(=O)c1cc(Cn2nc(C(F)(F)F)c([N+](=O)[O-])c2C)nn1-c1ncccc1Cl [Example 19]
[1]; [5]
  chromatographic logP: 3.11
[2]; [6]
  pest or weed control at 100 g/ha: 100%
[4]
  pest or weed control at 100 g/ha: 100%

## COC(=O)N(C)NC(=O)c1cc(Cl)cc(C)c1NC(=O)c1cc(Cn2cnc(SC)n2)nn1-c1ncccc1Cl [Example 64]
[1]
  chromatographic logP: 2.09

## COC(=O)N(C)NC(=O)c1cc(I)cc(C)c1NC(=O)c1cc(Cn2cc(C(F)(F)F)nn2)nn1-c1ncccc1Cl [Example 35]
[1]
  chromatographic logP: 3.14
[2]; in Zea mays
  pest or weed control at 100 g/ha: 100%
[3]; in Brassica rapa
  pest or weed control at 100 g/ha: 100%
[4]
  pest or weed control at 100 g/ha: 100%

## COC(=O)N(C)NC(=O)c1cc(I)cc(C)c1NC(=O)c1cc(Cn2nnc(C(F)(F)C(F)(F)C(F)(F)F)n2)nn1-c1ncccc1Cl [Example 81]
[1]; [5]
  chromatographic logP: 3.85
[2]; in Zea mays
  pest or weed control at 100 g/ha: 100%
[3]; in Brassica rapa
  pest or weed control at 100 g/ha: 80%
[4]
  pest or weed control at 100 g/ha: 100%

## COC(=O)N(C)NC(=O)c1cc(I)cc(C)c1NC(=O)c1cc(Cn2nnnc2C(F)(F)F)nn1-c1ncccc1Cl [Example 72]
[1]
  chromatographic logP: 2.78
[2]; in Zea mays
  pest or weed control at 100 g/ha: 100%
[3]; in Brassica rapa
  pest or weed control at 100 g/ha: 100%
[4]
  pest or weed control at 100 g/ha: 100%

## COC(=O)N(C)NC(=O)c1cc(C#N)cc(C)c1NC(=O)c1cc(Cn2cc(C(F)(F)F)nn2)nn1-c1ncccc1Cl [Example 47]
[1]
  chromatographic logP: 2.3
[2]; in Zea mays
  pest or weed control at 100 g/ha: 100%
[3]; in Brassica rapa
  pest or weed control at 100 g/ha: 90%
[4]
  pest or weed control at 100 g/ha: 100%

## COC(=O)N(C)NC(=O)c1cc(Cl)cc(C)c1NC(=O)c1cc(Cn2cc(-c3ccc(Cl)cc3)nn2)nn1-c1ncccc1Cl [Example 23]
[1]
  chromatographic logP: 3.14
[2]; in Zea mays
  pest or weed control at 100 g/ha: 100%
[3]; in Brassica rapa
  pest or weed control at 100 g/ha: 100%
[4]
  pest or weed control at 100 g/ha: 100%

## COC(=O)N(C)NC(=O)c1cc(Cl)cc(C)c1NC(=O)c1cc(Cn2cnc(C(F)(F)F)c2C(F)(F)F)nn1-c1ncccc1Cl [Example 48]
[1]; [5]
  chromatographic logP: 3.08
[2]; [6]
  pest or weed control at 100 g/ha: 100%
[3]; [7]
  pest or weed control at 100 g/ha: 100%
[4]
  pest or weed control at 100 g/ha: 100%

## COC(=O)N(C)NC(=O)c1cc(Cl)cc(C)c1NC(=O)c1cc(Cn2nnc(C(F)F)n2)nn1-c1ncccc1Cl [Example 26]
[1]
  chromatographic logP: 2.49
[2]; in Zea mays
  pest or weed control at 100 g/ha: 100%
[3]; in Brassica rapa
  pest or weed control at 100 g/ha: 100%
[4]
  pest or weed control at 100 g/ha: 100%

## COC(=O)N(C)NC(=O)c1cc(C#N)cc(C)c1NC(=O)c1cc(Cn2cnc(C(F)(F)F)c2)nn1-c1ncccc1Cl [Example 78]
[1]
  chromatographic logP: 2.1
[3]; in Brassica rapa
  pest or weed control at 100 g/ha: 90%

## COC(=O)N(C)NC(=O)c1cc(C#N)cc(C)c1NC(=O)c1cc(Cn2nnnc2C(F)(F)F)nn1-c1ccccc1Cl [Example 55]
[1]; [5]
  chromatographic logP: 2.69

## COC(=O)NNC(=O)c1cc(Cl)cc(C)c1NC(=O)c1cc(Cn2nnc(C(F)(F)F)n2)nn1-c1ncccc1Cl [Example 3]
[1]
  chromatographic logP: 2.73
[2]; in Zea mays
  pest or weed control at 100 g/ha: 100%
[3]; in Brassica rapa
  pest or weed control at 100 g/ha: 100%
[4]
  pest or weed control at 100 g/ha: 100%

## COC(=O)N(C)NC(=O)c1cc(I)cc(C)c1NC(=O)c1cc(Cn2ccc(C(F)(F)F)n2)nn1-c1ncccc1Cl [Example 17]
[1]
  chromatographic logP: 3.01
[2]; in Zea mays
  pest or weed control at 100 g/ha: 100%
[3]; in Brassica rapa
  pest or weed control at 100 g/ha: 100%
[4]
  pest or weed control at 100 g/ha: 100%

## COC(=O)NNC(=O)c1cc(I)cc(C)c1NC(=O)c1cc(Cn2cnc(C(F)(F)F)c2)nn1-c1ncccc1Cl [Example 80]
[1]
  chromatographic logP: 2.38

## COC(=O)N(C)NC(=O)c1cc(C#N)cc(C)c1NC(=O)c1cc(Cn2cnc(C(F)(F)F)c2C(F)(F)F)nn1-c1ncccc1Cl [Example 76]
[1]; [5]
  chromatographic logP: 2.77

## COC(=O)NNC(=O)c1cc(C#N)cc(C)c1NC(=O)c1cc(Cn2nnc(C(F)(F)F)n2)nn1-c1ccccc1Cl [Example 84]
[2]; [6]
  pest or weed control at 100 g/ha: 100%
[3]; [7]
  pest or weed control at 100 g/ha: 100%
[4]
  pest or weed control at 100 g/ha: 100%

## COC(=O)N(C)NC(=O)c1cc(Cl)cc(C)c1NC(=O)c1cc(Cn2nc(C(F)(F)F)cc2C(F)(F)F)nn1-c1ncc(C(F)(F)F)cc1Cl [Example 10]
[1]; [5]
  chromatographic logP: 4.35

## COC(=O)NNC(=O)c1cc(I)cc(C)c1NC(=O)c1cc(Cn2nnc(C(F)(F)C(F)(F)C(F)(F)F)n2)nn1-c1ncccc1Cl [Example 2, Methyl N′-(2-{[2-(3-chloropyridin-2-yl)-5-(5-heptalluoropropyltetrazol-2-ylmethyl)-2H-pyrazole-3-carbonyl]amino}-5-iodo-3-methylbenzoyl)hydrazincarboxylate]
[1]; HPLC, reversed-phase C 18, value in text of the Preparation Examples, read-out: logP
  chromatographic logP: 3.58
[2]; in Zea mays
  pest or weed control at 100 g/ha: 100%
[4]
  pest or weed control at 100 g/ha: 100%

## COC(=O)N(C)NC(=O)c1cc(C#N)cc(C)c1NC(=O)c1cc(COc2ccc(C(F)(F)F)nn2)nn1-c1ncccc1Cl [Example 22]
[1]
  chromatographic logP: 2.53
[3]; in Brassica rapa
  pest or weed control at 100 g/ha: 100%
[4]
  pest or weed control at 100 g/ha: 100%

## COC(=O)N(C)NC(=O)c1cc(C#N)cc(C)c1NC(=O)c1cc(Cn2nnc(C(F)(F)F)n2)nn1-c1ccccc1Cl [Example 56]
[1]; [5]
  chromatographic logP: 2.97

## COC(=O)N(C)N(C)C(=O)c1cc(Cl)cc(C)c1NC(=O)c1cc(Cn2cc(C3CC3)nn2)nn1-c1ncccc1Cl [Example 39]
[1]
  chromatographic logP: 2.71
[3]; in Brassica rapa
  pest or weed control at 100 g/ha: 80%

## COC(=O)N(C)NC(=O)c1cc(Cl)cc(C)c1NC(=O)c1cc(Cn2cc(C(C)(C)C)nn2)nn1-c1ncccc1Cl [Example 24]
[1]
  chromatographic logP: 2.53

## COC(=O)N(C)NC(=O)c1cc(I)cc(C)c1NC(=O)c1cc(Cn2cnc(C(F)(F)F)c2)nn1-c1ncccc1Cl [Example 77]
[1]
  chromatographic logP: 2.56
[2]; in Zea mays
  pest or weed control at 100 g/ha: 83%
[3]; in Brassica rapa
  pest or weed control at 100 g/ha: 80%

## COC(=O)N(C)NC(=O)c1cc(Cl)cc(C)c1NC(=O)c1cc(CNS(=O)(=O)c2ccccc2)nn1-c1ncccc1Cl [Example 71]
[1]
  chromatographic logP: 2.42

## COC(=O)N(C)NC(=O)c1cc(Cl)cc(Cl)c1NC(=O)c1cc(Cn2nc(C(F)(F)F)cc2C(F)(F)F)nn1-c1ncc(C(F)(F)F)cc1Cl [Example 18]
[1]; [5]
  chromatographic logP: 4.32

## COC(=O)NNC(=O)c1cc(Cl)cc(C)c1NC(=O)c1cc(Cn2cc(C(C)(C)C)nn2)nn1-c1ncccc1Cl [Example 62]
[1]
  chromatographic logP: 2.38
[2]; in Zea mays
  pest or weed control at 100 g/ha: 100%

## COC(=O)N(C)NC(=O)c1cc(Cl)cc(Cl)c1NC(=O)c1cc(Cn2nc(C(F)(F)F)nc2C)nn1-c1ncccc1Cl [Example 21]
[1]
  chromatographic logP: 2.51
[2]; in Zea mays
  pest or weed control at 100 g/ha: 100%
[3]; in Brassica rapa
  pest or weed control at 100 g/ha: 90%

## COC(=O)N(C)NC(=O)c1cc(Cl)cc(C)c1NC(=O)c1cc(Cn2nc(C)c(Br)c2C)nn1-c1ncccc1Cl [Example 65]
[1]
  chromatographic logP: 2.97
[2]; in Zea mays
  pest or weed control at 100 g/ha: 100%
[3]; in Brassica rapa
  pest or weed control at 100 g/ha: 80%

## COC(=O)N(C)NC(=O)c1cc(F)cc(C)c1NC(=O)c1cc(Cn2nnc(C(F)(F)C(F)(F)F)n2)nn1-c1ncccc1Cl [Example 44]
[1]
  chromatographic logP: 3.05

## COC(=O)NNC(=O)c1cc(C#N)cc(C)c1NC(=O)c1cc(Cn2nnc(C(F)(F)F)n2)nn1-c1ccccc1Cl [Example 58]
[1]; [5]
  chromatographic logP: 2.79

## COC(=O)N(C)N(C)C(=O)c1cc(Cl)cc(C)c1NC(=O)c1cc(Cn2cc(C(C)(C)C)nn2)nn1-c1ncccc1Cl [Example 40]
[1]
  chromatographic logP: 2.98

## COC(=O)N(C)NC(=O)c1cc(Cl)cc(Cl)c1NC(=O)c1cc(Cn2nc(C(F)(F)C(F)(F)F)cc2C(F)(F)C(F)(F)F)nn1-c1ncccc1Cl [Example 14]
[1]; [5]
  chromatographic logP: 4.3
[2]; [6]
  pest or weed control at 100 g/ha: 100%
[4]
  pest or weed control at 100 g/ha: 100%

## COC(=O)N(C)NC(=O)c1cc(Cl)cc(C)c1NC(=O)c1cc(CNS(=O)(=O)c2ccccc2C(F)(F)F)nn1-c1ncccc1Cl [Example 70]
[1]; [5]
  chromatographic logP: 2.81

## COC(=O)N(C)NC(=O)c1cc(Cl)cc(Cl)c1NC(=O)c1cc(Cn2nc(C(F)(F)F)cc2-c2ccccc2)nn1-c1ncccc1Cl [Example 15]
[1]; [5]
  chromatographic logP: 3.82
[2]; [6]
  pest or weed control at 100 g/ha: 100%

## COC(=O)N(C)NC(=O)c1cc(Cl)cc(C)c1NC(=O)c1cc(Cn2nc(C(F)(F)C(F)(F)F)cc2C(F)(F)C(F)(F)F)nn1-c1ncccc1Cl [Example 13]
[1]; [5]
  chromatographic logP: 4.32
[2]; [6]
  pest or weed control at 100 g/ha: 100%
[4]
  pest or weed control at 100 g/ha: 100%

Reference: patent US8410106B2, “Hydrazine-substituted anthranilic acid derivatives” (Bayer Cropscience AG, priority 2010, dated 2013)
